Reference: BindingDB's records for doi:10.1021/jm00053a023 (Monsanto, 1993)

Molecular target: endothelin converting enzyme (Oryctolagus cuniculus)
Experiment: Inhibition of endothelin converting enzyme in an RIA assay using big ET-1 as substrate (value corresponds to <25% inhibition when assayed at a 100 uM screening concentration)

| SMILES | IC50 |
| --- | --- |
| CC(C)C[C@H](NP(=O)(O)OC1CCCCC1)C(=O)N[C@@H](Cc1c[nH]c2ccccc12)C(=O)O [2-[2-(Cyclohexyloxy-hydroxy-phosphorylamino)-4-methyl-pentanoylamino]-3-(1H-indol-3-yl)-propionic acid] | 48 µM |
| CC(C)C[C@H](NP(=O)(O)Cc1ccccc1)C(=O)N[C@@H](Cc1c[nH]c2ccccc12)C(=O)O [2-[2-(Hydroxy-benzyl-phosphorylamino)-4-methyl-pentanoylamino]-3-(1H-indol-3-yl)-propionic acid] | 61 µM |
| CCOP(=O)(O)N[C@@H](CC(C)C)C(=O)N[C@@H](Cc1c[nH]c2ccccc12)C(=O)O [2-[2-(Ethoxy-hydroxy-phosphorylamino)-4-methyl-pentanoylamino]-3-(1H-indol-3-yl)-propionic acid] | 109 µM |
